How the values were obtained:
Protease [1] = target: T1, Protease (Human immunodeficiency virus 1, UniProt Q9YQ12); test: Inhibition of wild type HIV1 protease by uncompetitive binding
Protease [2] = target: T1, Protease; test: Inhibition of wild type HIV1 protease by competitive binding

## CC(C)CN(C[C@@H](O)[C@H](Cc1ccccc1)NC(=O)O[C@H]1CCOC1)S(=O)(=O)c1ccc(N)cc1
Protease [1]
  Ki: 0.028 µM
Protease [2]
  Ki: 0.0062 µM

— ChEMBL document CHEMBL1140144 (J Med Chem, 2008)
